Measurements from ChEMBL document CHEMBL1629589, “Activity of the oral neuraminidase inhibitor A-322278 against the oseltamivir-resistant H274Y (A/H1N1) influenza virus mutant in mice” (2009).

Tests used:
Format in all cases: functional
Influenza A virus [1] = assay: Antiviral activity against recombinant Influenza A virus (A/WSN/1933(H1N1)) H274Y mutant infected in BALB/c mouse assessed as mortality rate at 1 mg/kg, po administered 48 hrs postinfection for 5 days measured on day 5 (reference value: 100 %)
Influenza A virus [2] = assay: Antiviral activity against recombinant Influenza A virus (A/WSN/1933(H1N1)) H274Y mutant infected in BALB/c mouse assessed as lung viral titer at 10 mg/kg, po administered 48 hrs postinfection for 5 days measured on day 4 (reference value: 1 x 10^6 +/- 0.3 x 10^6 PFU)
Influenza A virus [3] = assay: Antiviral activity against recombinant Influenza A virus (A/WSN/1933(H1N1)) H274Y mutant infected in BALB/c mouse assessed as reduction in body weight at 10 mg/kg, po administered 48 hrs postinfection for 5 days measured on day 5 (reference value: 22.2 %); parameters: scale not given: the % may be the effect or the level left
Influenza A virus [4] = assay: Antiviral activity against recombinant Influenza A virus (A/WSN/1933(H1N1)) H274Y mutant infected in BALB/c mouse assessed as reduction in body weight at 1 mg/kg, po administered 48 hrs postinfection for 5 days measured on day 5 (reference value: 22.2 %); parameters: scale not given: the % may be the effect or the level left
Influenza A virus [5] = assay: Antiviral activity against recombinant Influenza A virus (A/WSN/1933(H1N1)) H274Y mutant infected in BALB/c mouse assessed as time to death at 10 mg/kg, po administered 48 hrs postinfection for 5 days (reference value: 5.1 days)
Influenza A virus [6] = assay: Antiviral activity against recombinant Influenza A virus (A/WSN/1933(H1N1)) H274Y mutant infected in BALB/c mouse assessed as time to death at 1 mg/kg, po administered 48 hrs postinfection for 5 days (reference value: 5.1 days)
Influenza A virus [7] = assay: Antiviral activity against recombinant Influenza A virus (A/WSN/1933(H1N1)) H274Y mutant infected in BALB/c mouse assessed as lung viral titer at 1 mg/kg, po administered 48 hrs postinfection for 5 days measured on day 4 (reference value: 1 x 10^6 +/- 0.3 x 10^6 PFU)
Influenza A virus [8] = assay: Antiviral activity against recombinant Influenza A virus (A/WSN/1933(H1N1)) H274Y mutant infected in BALB/c mouse assessed as reduction in body weight at 1 mg/kg, po administered 4 hrs before infection for 5 days measured on day 5 (reference value: 22.2 %); parameters: scale not given: the % may be the effect or the level left
Influenza A virus [9] = assay: Antiviral activity against recombinant Influenza A virus (A/WSN/1933(H1N1)) H274Y mutant infected in BALB/c mouse assessed as mortality rate at 10 mg/kg, po administered 48 hrs postinfection for 5 days measured on day 5 (reference value: 100 %)
Influenza A virus [10] = assay: Antiviral activity against recombinant Influenza A virus (A/WSN/1933(H1N1)) H274Y mutant infected in BALB/c mouse assessed as lung viral titer at 1 mg/kg, po administered 4 hrs before infection for 5 days measured on day 4 (reference value: 1 x 10^6 +/- 0.3 x 10^6 PFU)
Influenza A virus [11] = assay: Antiviral activity against recombinant Influenza A virus (A/WSN/1933(H1N1)) H274Y mutant infected in BALB/c mouse assessed as time to death at 1 mg/kg, po administered 4 hrs before infection on day 5 (reference value: 5.1 days)
Influenza A virus [12] = assay: Antiviral activity against recombinant Influenza A virus (A/WSN/1933(H1N1)) H274Y mutant infected in BALB/c mouse assessed as mortality rate at 1 mg/kg, po administered 4 hrs before infection for 5 days measured on day 5 (reference value: 100 %)
Influenza A virus [13] = assay: Antiviral activity against recombinant Influenza A virus (A/WSN/1933(H1N1)) H274Y mutant infected in BALB/c mouse assessed as lung viral titer at 10 mg/kg, po administered 4 hrs before infection for 5 days measured on day 4 (reference value: 1 x 10^6 +/- 0.3 x 10^6 PFU)
Influenza A virus [14] = assay: Antiviral activity against recombinant Influenza A virus (A/WSN/1933(H1N1)) H274Y mutant infected in BALB/c mouse assessed as mortality rate at 10 mg/kg, po administered 4 hrs before infection for 5 days measured on day 5 (reference value: 100 %)
Influenza A virus [15] = assay: Antiviral activity against recombinant Influenza A virus (A/WSN/1933(H1N1)) H274Y mutant infected in BALB/c mouse assessed as reduction in body weight at 10 mg/kg, po administered 4 hrs before infection for 5 days measured on day 5 (reference value: 22.2 %); parameters: scale not given: the % may be the effect or the level left

Structure (SMILES) | Activity (Influenza A virus [1]) | PFU (Influenza A virus [2]) | Activity (Influenza A virus [3]) | Activity (Influenza A virus [4]) | Time (Influenza A virus [5]) | Time (Influenza A virus [6]) | PFU (Influenza A virus [7]) | Activity (Influenza A virus [8]) | Activity (Influenza A virus [9]) | PFU (Influenza A virus [10]) | Time (Influenza A virus [11]) | Activity (Influenza A virus [12]) | PFU (Influenza A virus [13]) | Activity (Influenza A virus [14]) | Activity (Influenza A virus [15])
CCOC(=O)C1=C[C@@H](OC(CC)CC)[C@H](NC(C)=O)[C@@H](N)C1 [OSELTAMIVIR] | 100% | 13000 | 21.5% | 20.1% | 5.2 days | 5 days | 230000 | 23.7% | 75% | 190000 | 5.1 days | 100% |  |  | 
C/C=C\[C@@H]1C[C@H](C(=O)OC(C)C)N[C@H]1[C@@H](NC(C)=O)[C@](C)(CCC)OC | 75% | 130000 | 15.6% | 19% | 5.4 days |  | 83000 | 10.8% | 25% | 69000 | 5 days | 0% | 35000 | 0% | 5%
